Data set [1] deals with T1, Metabotropic glutamate receptor 5 (Rattus norvegicus, UniProt P31424). The experiment in a line: Negative allosteric modulation of mGlu5 receptor in primary E17 rat embryo neuron assessed as ca2+ level by fluo-4/AM assay.
The target of data set [2] is T1, Metabotropic glutamate receptor 5. Put plainly: Displacement of [3H]-M-MPEP from rat cerebrocortical mGluR5 receptor.
For data set [3], the system named is Liver microsome. Put plainly: Intrinsic clearance in Wistar rat liver microsomes measured per gram of tissue at 2.5 uM. The class given is ADME. In general terms: Liver microsomes are vesicles of endoplasmic reticulum, rich in cytochrome P450 enzymes.
Data set [4] concerns Liver microsome. Put plainly: Intrinsic clearance in human liver microsomes measured per gram of tissue at 2.5 uM. The class given is ADME.

pIC50, pKi: −log10 of the molar value.

In general, pIC50 refers to the IC50 on a negative log10 scale, so that one unit is a factor of ten. As a reminder, the pKi is the negative decadic logarithm of the Ki, by convention in mol/L.

T1 sequence (P31424 whole entry): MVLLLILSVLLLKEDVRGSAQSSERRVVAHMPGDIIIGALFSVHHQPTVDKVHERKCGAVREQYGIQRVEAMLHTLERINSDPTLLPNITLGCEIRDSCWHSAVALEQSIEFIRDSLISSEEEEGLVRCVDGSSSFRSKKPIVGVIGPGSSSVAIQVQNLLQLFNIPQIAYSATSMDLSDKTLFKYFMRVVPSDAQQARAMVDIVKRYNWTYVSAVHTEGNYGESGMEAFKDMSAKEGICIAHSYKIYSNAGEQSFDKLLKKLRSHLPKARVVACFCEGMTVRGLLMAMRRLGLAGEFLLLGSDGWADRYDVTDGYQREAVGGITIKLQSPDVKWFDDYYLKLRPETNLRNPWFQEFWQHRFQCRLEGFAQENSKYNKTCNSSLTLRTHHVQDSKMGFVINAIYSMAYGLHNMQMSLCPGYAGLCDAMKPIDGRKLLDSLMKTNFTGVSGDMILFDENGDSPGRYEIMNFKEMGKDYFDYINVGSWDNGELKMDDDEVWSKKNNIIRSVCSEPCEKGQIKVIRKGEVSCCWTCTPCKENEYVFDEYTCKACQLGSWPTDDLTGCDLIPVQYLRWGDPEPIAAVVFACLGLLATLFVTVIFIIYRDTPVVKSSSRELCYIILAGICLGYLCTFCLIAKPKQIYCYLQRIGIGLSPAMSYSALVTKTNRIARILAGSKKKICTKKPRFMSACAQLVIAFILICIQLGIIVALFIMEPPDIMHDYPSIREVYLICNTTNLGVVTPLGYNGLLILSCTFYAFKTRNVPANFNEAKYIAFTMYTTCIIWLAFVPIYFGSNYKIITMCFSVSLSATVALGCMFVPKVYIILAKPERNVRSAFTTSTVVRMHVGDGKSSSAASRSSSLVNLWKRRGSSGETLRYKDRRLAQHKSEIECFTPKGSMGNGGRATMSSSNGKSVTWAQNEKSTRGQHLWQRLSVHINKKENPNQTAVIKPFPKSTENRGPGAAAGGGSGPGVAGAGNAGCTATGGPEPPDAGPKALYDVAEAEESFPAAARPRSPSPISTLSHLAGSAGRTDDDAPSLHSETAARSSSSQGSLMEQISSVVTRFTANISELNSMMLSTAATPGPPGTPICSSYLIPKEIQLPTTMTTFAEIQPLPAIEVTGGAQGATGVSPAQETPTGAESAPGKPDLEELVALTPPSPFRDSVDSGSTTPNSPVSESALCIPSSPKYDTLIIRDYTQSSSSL

As for `N#Cc1cc(F)cc(S(=O)(=O)c2sc3ncc(N)cc3c2-c2cnccc2F)c1`, the pIC50 in data set [1] was 7.74. The molecule also had a pKi in data set [2] of 7.82. The CLH in the data set with Liver microsome [3] was 0.7 mL/min/g; in the data set on Liver microsome [4], 0.6 mL/min/g.
For `N#Cc1cc(F)cc(S(=O)(=O)c2sc3ncc(N)cc3c2-c2cc(F)cc(F)c2)c1`, in that order: 8.21, 8.62, 1.04 mL/min/g and 0.8 mL/min/g.
For `N#Cc1cc(F)cc(S(=O)(=O)c2sc3nc(F)ccc3c2-c2cccc(F)c2)c1` the same measures were 8.31, 8.60, 2.9 mL/min/g and 0.6 mL/min/g.
For `N#Cc1cc(F)cc(S(=O)(=O)c2sc3ncccc3c2-c2ccccc2F)c1`, in that order: 8.82, 8.96, 3.5 mL/min/g and 2.4 mL/min/g.
On to `N#Cc1cc(F)cc(S(=O)(=O)c2sc3ncc(N)cc3c2-c2ccc(Cl)cc2)c1`, for which, in data set [1], the pIC50 is 7.52. The pKi in data set [2] is 8.66. Moreover, the values for the CLH in the data set on Liver microsome [3] and with Liver microsome [4] were 1 mL/min/g and 1.3 mL/min/g, respectively.
For the molecule `Nc1ccc2c(-c3ccc(Cl)cc3)c(S(=O)(=O)c3ccc(Cl)cc3)sc2n1`, the pIC50 in data set [1] was 6.43. Besides, in data set [2], the pKi was 7.08. Further, the CLH in the data set on Liver microsome [3] worked out at 0.5 mL/min/g; in the data set with Liver microsome [4], 0.01 mL/min/g.
For `O=S(=O)(c1ccc(Cl)cc1)c1sc2ncccc2c1-c1ccccc1Cl` the same measures were 6.76, 7.19, 3.7 mL/min/g and 2.8 mL/min/g.
For `N#Cc1cc(F)cc(S(=O)(=O)c2sc3nc(F)ccc3c2-c2ccc(F)cc2)c1`, in that order: 7.85, 8.55, 2 mL/min/g and 3.5 mL/min/g.
For `O=S(=O)(c1ccc(Cl)cc1)c1sc2ncc(Cl)cc2c1-c1ccc(Cl)cc1`, in that order: 6.44, 7.16, 2.8 mL/min/g and 0.01 mL/min/g.
Regarding `O=S(=O)(c1ccc(Cl)cc1)c1sc2nc(F)ccc2c1-c1ccc(Cl)cc1`, in data set [1], the pIC50 is 6.76. Moreover, in data set [2], the pKi is 7.59. In addition, the CLH amounted to 3.8 mL/min/g with Liver microsome [3] and 0.1 mL/min/g in the data set on Liver microsome [4].
For `O=S(=O)(c1ccc(Cl)cc1)c1sc2nc(O)ccc2c1-c1ccc(Cl)cc1` the same measures were 6.47, 7.22, 0.9 mL/min/g and 0.04 mL/min/g.
For `N#Cc1cccc(S(=O)(=O)c2sc3nc(O)ccc3c2-c2ccc(Cl)cc2)c1`, in that order: 7.34, 7.41, 1.1 mL/min/g and 0.4 mL/min/g.
For `N#Cc1cc(F)cc(S(=O)(=O)c2sc3ncc(N)cc3c2-c2ccc(F)cc2)c1` the same measures were 8.19, 8.55, 1.2 mL/min/g and 0.8 mL/min/g.
For `O=S(=O)(c1ccc(Cl)cc1)c1sc2ncccc2c1-c1ccc(F)cc1`, the pIC50 in data set [1] was 7.04. Besides, the pKi in data set [2] is 7.66. The CLH stood at 13.6 mL/min/g in the data set on Liver microsome [3] and 3.4 mL/min/g in the data set on Liver microsome [4].
For `N#Cc1cccc(-c2c(S(=O)(=O)c3cccc(C#N)c3)sc3ncccc23)c1`, in that order: 6.98, 7.07, 3.9 mL/min/g and 1.1 mL/min/g.
For `Nc1cnc2sc(S(=O)(=O)c3ccc(Cl)cc3)c(-c3ccc(Cl)cc3)c2c1`, in that order: 7.11, 7.72, 0.7 mL/min/g and 1.6 mL/min/g.
With `N#Cc1cc(F)cc(S(=O)(=O)c2sc3ncccc3c2-c2ccc(Cl)cc2)c1`, the pIC50 in data set [1] was 7.74. The pKi in data set [2] is 8.70. Also, the CLH came to 3.4 mL/min/g in the data set with Liver microsome [3] and 1.4 mL/min/g in the data set with Liver microsome [4].
For `O=S(=O)(c1ccc(Cl)cc1)c1sc2ncccc2c1-c1ccccc1F` the same measures were 6.87, 7.29, 4.1 mL/min/g and 2.4 mL/min/g.

(Values after ChEMBL document CHEMBL3400086, “Thieno[2,3-b]pyridines as negative allosteric modulators of metabotropic GluR5 receptors: Lead optimization” (Bioorg Med Chem Lett, 2015).)
